From article PMC12454639, “Direct disassembly of α-syn preformed fibrils into α-syn monomers by an all-D-peptide” (NPJ Parkinson's Disease, 2025)
Square brackets hold non-standard residues; d marks the D form. Peptide text beside a SMILES is read from it.

Test system: α-syn monomer
Assay: 100 kDa MWCO fractionation of de novo aggregation samples followed by ELISA
Assay type: biochemical, Human
Conditions: 7 days, ELISA n = 3
Method: Fig. 7 De novo aggregation analysis of α-syn in the presence and absence of SVD-1a. A De novo ThT assay of 10 µM α-syn with and without 20 µM SVD-1a. ThT fluorescence progression was measured in a 96-well non-binding half-area plate (Corning, USA) with a FLUOStar plate reader (BMG labtech, GE) at λex = 448 nm and λem = 482 nm with 300 rpm continuous orbital shaking between reads. For induction of aggregation, one borosilicate bead per well was added (d = 3 mm, Hilgenberg, GE). Data are shown as mean values with ±SD (n = 5). B CD secondary structure analysis of de novo aggregation samples. Samples were incubated as described in (A) without added ThT (n = 3) and subsequently pooled for CD analysis. Far-UV ellipticity of the samples was measured in a quartz cuvette (l = 10 mm) in a J-1100 CD-spectrometer (Jasco, GE). In addition to (A), a sample with 20 µM SVD-1a alone was incubated under identical conditions and later used as a reference for the sample with α-syn and SVD-1a. For this sample (α-syn + SVD-1a (after incubation)), the SVD-1a reference subtracted CD spectrum is shown. […] D α-Syn in the flow through (MWCO < 100 kDa) was quantified using an α-syn specific ELISA (BioLegend, Human α-Synuclein (Colorimetric), 448607, n = 3). E Retentate and flow-through samples were analyzed using SDS–PAGE with silver staining. […]

CC[C@@H](C)[C@@H](NC(=O)[C@@H](Cc1c[nH]cn1)NC(=O)[C@@H](CCC(=O)O)NC(=O)[C@@H](CCC(N)=O)NC(=O)[C@@H](Cc1c[nH]c2ccccc12)NC(=O)[C@@H](Cc1ccc(O)cc1)NC(=O)[C@H](NC(=O)[C@@H](CCC(=O)O)NC(=O)[C@@H](Cc1c[nH]cn1)NC(=O)[C@H](NC(=O)[C@H]1CCCN1C(=O)[C@@H](CC(C)C)NC(=O)[C@H](N)CCCNC(=N)N)[C@H](C)O)[C@H](C)O)C(=O)N[C@H](Cc1c[nH]c2ccccc12)C(=O)N[C@H](Cc1c[nH]cn1)C(=O)N[C@H](C)C(=O)N[C@H](CCCNC(=N)N)C(=O)N[C@H](CCCNC(=N)N)C(=O)N[C@H](CCCNC(=N)N)C(=O)N[C@H](CCCNC(=N)N)C(=O)N[C@H](CCCNC(=N)N)C(N)=O [SVD-1a] (H-[dR][dL][dP][dT][dH][dE][dT][dY][dW][dQ][dE][dH][dI][dW][dH][dA][dR][dR][dR][dR][dR]-NH2)
monomeric α-syn in flow-through (10 µM α-syn with 5, 10, 20 µM SVD-1a, controls ~3.7 µM before, ~0.3 µM after incubation without compound): concentration-dependent stabilization of monomeric α-syn
monomeric α-syn in flow-through vs non-pre-incubated control (20 µM SVD-1a, 10 µM α-syn): restoring monomer levels in the eluate to those of the non-pre-incubated control
